Here are results for one molecule from patent US9522881B2, “Hydroxyindole carboxylic acid based inhibitors for oncogenic Src homology-2 domain containing protein tyrosine phosphatase-2 (SHP2)” (Indiana University Research and Technology Corporation, priority 2013, dated 2016).

Test [1] deals with mPTPA (Mycobacterium tuberculosis (strain ATCC 25618 / H37Rv), UniProt P9WIA1). Briefly: PTP selectivity panel, pNPP. It is filed as biochemical. As to conditions: pNPP at Km.
Test [2] deals with Laforin (Homo sapiens (Human), UniProt O95278). Nature of the test: PTP selectivity panel, pNPP. It is filed as biochemical, mammalian. As to conditions: pNPP at Km.
Test [3] concerns the target PTPγ (Homo sapiens (Human), UniProt P23470). Briefly: PTP selectivity panel, pNPP. The format is biochemical, mammalian. The following applies: pNPP at Km.
Test [4] has as its target SHP1 (Homo sapiens (Human), UniProt P29350). Briefly: PTP selectivity panel, pNPP. The format is biochemical, mammalian.
The subject of test [5] is 32D myeloid cells bearing wild-type (WT) KIT. Nature of the test: Proliferation (thymidine incorporation) of 32D myeloid cells bearing WT KIT. It is filed as cell-based. The following applies: tested concentrations, with IL-3. The method, then: (§1) FIG. 8A is a graph depicting 32D myeloid cells bearing wild-type (WT) KIT or KITD814V that were starved of serum and growth factors for 6 hours and subjected to proliferation assay in the presence or absence of the indicated concentration of II-B08 or 11a-1 as analyzed in Example 6. Assay was performed in the presence of IL-3 (10 ng/mL) for cells bearing WT KIT and in the absence of growth factors for cells bearing oncogenic KITD814V. Bars denote the mean thymidine incorporation (CPM±SEM) consolidated from four independent experiments performed in triplicate. *p<0.05.
To further determine the efficacy of compound 11a-1, the growth of oncogenic KITD814V bearing 32D myeloid cells in the presence of II-B08 and 11a-1 were compared. Specifically, the wild-type (WT) KIT and KITD814V were inserted into the bicistronic retroviral vector, MIEG3, upstream of the internal ribosome entry site (IRES) and the enhanced green fluorescent protein (EGFP) gene as previously described in Mali et al., 2012. Retroviral supernatants for transduction of 32D myeloid cells and primary hematopoietic stem and progenitor cells were generated using Phoenix ecotropic packaging cell line transfected with retroviral vector plasmids using a calcium phosphate transfection kit (Invitrogen, Carlsbad, Calif.). Supernatants were collected 48 hours after transfection and filtered through 0.45 μm membranes. […]
(Dividing cells build labelled thymidine or BrdU into new DNA.)

The target of test [6] is MKP5 (Homo sapiens (Human), UniProt Q9Y6W6). Briefly: PTP selectivity panel, pNPP. The following applies: pNPP at Km. The format is biochemical, mammalian.
Test [7] has as its target VHZ (Homo sapiens (Human), UniProt Q9BVJ7). Nature of the test: PTP selectivity panel, pNPP. As to conditions: pNPP at Km. The format is biochemical, mammalian.
Test [8] deals with H1975 cells. Briefly: H1975 cell proliferation (MTT assay). It is filed as cell-based. The following applies: Homo sapiens, NCI-H1975, 48 h, treatment for 2 days. The method, then:
Particularly, human non-small cell lung carcinoma cell line H1975 was obtained from the American Tissue Culture Collection and cultured at 37° C. and 5% CO2 in RPMI-1640 (Corning, Corning, N.Y.) supplemented with 10% fetal bovine serum. 3×10^3 cells were seeded in each well of 96-well plates. After treatment with compound 11a-1 for 2 days, cells were incubated with 50 μg/ml MTT (3-(4,5-Dimethylthiazol-2-yl)-2,5-diphenyltetrazolium bromide (Sigma, St. Louis, Mo.) for 3-4 hours. Then, the culture medium was removed, DMSO was added to dissolve the formazan crystals. Wells containing only media were used for background correction. The optical density was measured spectrophotometrically at 540 nm.
For orientation: Tetrazolium dyes change colour on reduction, which living cells bring about.

For test [9], the system named is PMA-induced Erk1/2 phosphorylation. Nature of the test: PMA-induced Erk1/2 phosphorylation. It is filed as cell-based. The method, then: To provide further evidence that the observed cellular effect of compound 11a-1 is SHP2 dependent, the effect of compound 11a-1 on PMA (phorbol 12-myristate 13-acetate)-induced Erk1/2 activation, which is SHP2 independent and instead depends on the activation of protein kinase C and Raf in a Ras-independent manner, was evaluated. Thus, SHP2 inhibitors would not be expected to affect PMA-induced Erk1/2 phosphorylation. Indeed, compound 11a-1 had no effect on PMA-induced Erk1/2 phosphorylation (FIG. 6D).

Test [10] addresses UBLCP1 (Homo sapiens (Human), UniProt Q8WVY7). Briefly: PTP selectivity panel, pNPP. It is filed as biochemical, mammalian. The following applies: pNPP at Km.
In test [11] the target is VHR (Homo sapiens (Human), UniProt P51452). Briefly: PTP selectivity panel, pNPP. The format is biochemical, mammalian. As to conditions: pNPP at Km.
Test [12] concerns the target PTPσ (Homo sapiens (Human), UniProt Q13332). Nature of the test: PTP selectivity panel, pNPP. It is filed as biochemical, mammalian. As to conditions: pNPP at Km.
Test [13] concerns the target PTPε (Homo sapiens (Human), UniProt P23469). Nature of the test: PTP selectivity panel, pNPP. The format is biochemical, mammalian. As to conditions: pNPP at Km.
For test [14], the target named is PTPH1 (Homo sapiens (Human), UniProt P26045). Briefly: PTP selectivity panel, pNPP. It is filed as biochemical, mammalian. The following applies: pNPP at Km.
Test [15] addresses SHP2 (Homo sapiens (Human), UniProt Q06124). Nature of the test: SHP2-catalyzed hydrolysis of p-nitrophenyl phosphate (pNPP). The format is biochemical. The method, then:
Libraries 11a-d were screened at ˜5 μM for SHP2 inhibitors without further purification. The ability of the library components to inhibit the SHP2-catalyzed hydrolysis of p-nitrophenyl phosphate (pNPP) was evaluated at pH 7.0 and 25° C. More particularly, the phosphatase activity of SHP2 was assayed using p-nitrophenyl phosphate (pNPP) as a substrate at 25° C. in 50 mM 3,3-dimethylglutarate buffer, pH 7.0, containing 1 mM EDTA with an ionic strength of […] adjusted by NaCl. The libraries were screened in a 96-well format at 5 μM compound concentration. […] The nonenzymatic hydrolysis of pNPP was corrected by measuring the control without the addition of enzyme. The amount of product p-nitrophenol was determined from the absorbance at 405 nm detected by a Spectra MAX340 microplate spectrophotometer (Molecular Devices, Sunnyvale, Calif.) using a molar extinction coefficient of 18,000 M^−1 cm^−1. […] IC50 values for selected resynthesized and purified hits were calculated by fitting the absorbance at 405 nm versus inhibitor concentration to the following equation: AI/A0=IC50/(IC50+[I]) where AI is the absorbance at 405 nm of the sample in the presence of the inhibitor; A0 is the absorbance at 405 nm in the absence of inhibitor; and [I] is the concentration of the inhibitor.

Test [16] deals with 32D myeloid cells bearing KITD814V. Briefly: Proliferation (thymidine incorporation) of 32D myeloid cells bearing KITD814V. The format is cell-based. The method, then: as §1
To further determine the efficacy of compound 11a-1, the growth of oncogenic KITD814V bearing 32D myeloid cells in the presence of II-B08 and 11a-1 were compared. Specifically, the wild-type (WT) KIT and KITD814V were inserted into the bicistronic retroviral vector, MIEG3, upstream of the internal ribosome entry site (IRES) and the enhanced green fluorescent protein (EGFP) gene as previously described in Mali et al., 2012. Retroviral supernatants for transduction of 32D myeloid cells and primary hematopoietic stem and progenitor cells were generated using Phoenix ecotropic packaging cell line transfected with retroviral vector plasmids using a calcium phosphate transfection kit (Invitrogen, Carlsbad, Calif.). Supernatants were collected 48 hours after transfection and filtered through 0.45 μm membranes. 32D myeloid cells were infected twice at 24-hour intervals with 2 mL high/titer virus supernatant in the presence of 10 ng/mL IL-3 and 8 μg/mL polybrene. Forty-eight hours after infection, 32D cells expressing WT KIT or KITD814V receptors were sorted to homogeneity based on EGFP expression and utilized to perform all of the experiments.

Test [17] has as its target PTP1B (Homo sapiens (Human), UniProt P18031). Nature of the test: PTP selectivity panel, pNPP. It is filed as biochemical, mammalian.

For orientation: IC50 means the concentration that inhibits the measured activity by half.

Chain of SHP1 (P29350 whole entry): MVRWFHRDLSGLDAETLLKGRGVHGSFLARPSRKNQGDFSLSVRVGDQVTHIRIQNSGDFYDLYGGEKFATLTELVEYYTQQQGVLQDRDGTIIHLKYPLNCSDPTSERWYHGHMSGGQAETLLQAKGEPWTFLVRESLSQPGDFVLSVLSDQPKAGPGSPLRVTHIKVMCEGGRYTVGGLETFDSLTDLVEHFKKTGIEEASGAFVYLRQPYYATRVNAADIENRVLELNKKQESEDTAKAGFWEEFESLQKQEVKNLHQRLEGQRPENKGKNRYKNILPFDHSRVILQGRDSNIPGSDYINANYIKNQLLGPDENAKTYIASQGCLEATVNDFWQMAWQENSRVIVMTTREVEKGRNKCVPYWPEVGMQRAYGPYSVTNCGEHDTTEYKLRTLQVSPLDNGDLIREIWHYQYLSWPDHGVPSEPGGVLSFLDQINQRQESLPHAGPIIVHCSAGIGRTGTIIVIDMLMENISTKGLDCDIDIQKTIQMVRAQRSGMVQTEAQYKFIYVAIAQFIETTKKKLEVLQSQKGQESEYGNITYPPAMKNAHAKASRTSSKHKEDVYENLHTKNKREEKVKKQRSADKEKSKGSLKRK
Chain of SHP2 (Q06124 whole entry, looked up): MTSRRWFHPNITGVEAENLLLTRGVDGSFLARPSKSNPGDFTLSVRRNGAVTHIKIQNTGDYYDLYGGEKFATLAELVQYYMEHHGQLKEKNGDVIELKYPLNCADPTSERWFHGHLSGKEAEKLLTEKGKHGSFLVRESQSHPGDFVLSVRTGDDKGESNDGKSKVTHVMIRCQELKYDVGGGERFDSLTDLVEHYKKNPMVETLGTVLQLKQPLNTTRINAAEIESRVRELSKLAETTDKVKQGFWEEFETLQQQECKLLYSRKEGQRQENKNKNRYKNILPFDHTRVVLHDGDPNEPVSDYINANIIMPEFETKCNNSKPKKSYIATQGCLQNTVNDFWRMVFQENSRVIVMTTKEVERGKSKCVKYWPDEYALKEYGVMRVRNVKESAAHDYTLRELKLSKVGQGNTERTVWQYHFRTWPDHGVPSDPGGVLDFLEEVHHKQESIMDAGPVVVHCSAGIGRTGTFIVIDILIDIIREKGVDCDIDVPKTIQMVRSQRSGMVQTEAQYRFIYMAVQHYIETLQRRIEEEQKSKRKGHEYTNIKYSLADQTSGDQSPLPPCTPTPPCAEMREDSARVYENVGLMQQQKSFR
Chain of PTP1B (P18031 whole entry, species assumed): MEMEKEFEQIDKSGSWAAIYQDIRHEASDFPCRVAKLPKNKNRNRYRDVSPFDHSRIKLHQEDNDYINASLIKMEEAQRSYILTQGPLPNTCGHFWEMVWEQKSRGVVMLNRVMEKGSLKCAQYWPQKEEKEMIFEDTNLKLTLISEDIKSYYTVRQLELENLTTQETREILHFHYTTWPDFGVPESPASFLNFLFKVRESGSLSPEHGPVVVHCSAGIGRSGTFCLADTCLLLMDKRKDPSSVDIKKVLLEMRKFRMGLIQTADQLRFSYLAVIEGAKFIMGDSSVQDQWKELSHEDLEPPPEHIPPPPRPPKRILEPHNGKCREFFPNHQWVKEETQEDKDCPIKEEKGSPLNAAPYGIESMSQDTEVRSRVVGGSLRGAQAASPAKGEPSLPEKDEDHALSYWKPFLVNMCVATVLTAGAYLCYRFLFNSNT
Chain of PTPσ (Q13332 30-1948): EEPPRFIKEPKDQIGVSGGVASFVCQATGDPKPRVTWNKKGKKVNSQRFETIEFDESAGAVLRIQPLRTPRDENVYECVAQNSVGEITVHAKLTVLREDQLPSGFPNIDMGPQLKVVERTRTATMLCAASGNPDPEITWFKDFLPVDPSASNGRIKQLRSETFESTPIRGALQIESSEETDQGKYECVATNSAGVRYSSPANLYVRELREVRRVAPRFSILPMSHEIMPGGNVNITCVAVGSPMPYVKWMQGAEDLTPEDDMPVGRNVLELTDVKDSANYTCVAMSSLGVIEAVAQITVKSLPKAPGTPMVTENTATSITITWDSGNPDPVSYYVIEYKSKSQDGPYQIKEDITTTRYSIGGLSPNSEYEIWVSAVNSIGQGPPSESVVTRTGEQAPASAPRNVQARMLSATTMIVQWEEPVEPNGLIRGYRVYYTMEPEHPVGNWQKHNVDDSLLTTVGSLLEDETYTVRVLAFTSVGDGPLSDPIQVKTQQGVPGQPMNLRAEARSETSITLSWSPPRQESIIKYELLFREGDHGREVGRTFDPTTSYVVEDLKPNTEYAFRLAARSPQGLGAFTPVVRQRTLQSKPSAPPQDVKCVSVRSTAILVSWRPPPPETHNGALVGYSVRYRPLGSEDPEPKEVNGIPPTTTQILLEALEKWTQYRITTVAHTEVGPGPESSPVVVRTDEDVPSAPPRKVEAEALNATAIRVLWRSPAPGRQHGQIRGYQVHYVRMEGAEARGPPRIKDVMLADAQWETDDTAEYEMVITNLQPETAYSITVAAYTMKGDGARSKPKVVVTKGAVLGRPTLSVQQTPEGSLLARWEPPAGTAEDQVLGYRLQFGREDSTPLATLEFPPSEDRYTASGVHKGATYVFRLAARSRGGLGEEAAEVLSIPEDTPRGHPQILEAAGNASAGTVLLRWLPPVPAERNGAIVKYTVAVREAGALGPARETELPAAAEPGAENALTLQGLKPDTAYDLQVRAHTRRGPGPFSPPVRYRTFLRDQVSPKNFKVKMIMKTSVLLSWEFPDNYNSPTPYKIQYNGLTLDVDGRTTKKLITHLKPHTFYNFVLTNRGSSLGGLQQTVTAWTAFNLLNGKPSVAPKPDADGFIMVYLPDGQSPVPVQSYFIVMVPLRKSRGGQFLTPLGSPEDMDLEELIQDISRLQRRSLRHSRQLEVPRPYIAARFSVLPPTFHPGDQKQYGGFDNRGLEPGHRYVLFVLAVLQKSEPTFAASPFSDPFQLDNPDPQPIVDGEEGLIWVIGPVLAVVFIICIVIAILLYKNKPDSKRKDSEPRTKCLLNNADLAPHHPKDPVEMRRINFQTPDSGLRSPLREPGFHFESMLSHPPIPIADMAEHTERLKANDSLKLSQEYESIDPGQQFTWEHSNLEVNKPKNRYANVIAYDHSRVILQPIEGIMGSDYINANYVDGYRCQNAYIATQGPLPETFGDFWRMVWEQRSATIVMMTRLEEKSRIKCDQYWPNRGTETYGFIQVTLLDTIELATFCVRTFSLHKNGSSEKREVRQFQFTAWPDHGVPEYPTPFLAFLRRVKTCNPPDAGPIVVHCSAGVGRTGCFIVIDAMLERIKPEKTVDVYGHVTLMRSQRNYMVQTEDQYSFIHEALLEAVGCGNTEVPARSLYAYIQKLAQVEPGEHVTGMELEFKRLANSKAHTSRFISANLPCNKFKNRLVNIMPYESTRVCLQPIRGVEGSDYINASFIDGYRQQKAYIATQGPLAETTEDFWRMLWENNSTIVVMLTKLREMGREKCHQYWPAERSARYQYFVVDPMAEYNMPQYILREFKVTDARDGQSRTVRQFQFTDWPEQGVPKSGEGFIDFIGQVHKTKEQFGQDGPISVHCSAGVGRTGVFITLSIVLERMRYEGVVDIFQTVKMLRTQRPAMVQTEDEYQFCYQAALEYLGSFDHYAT
Chain of PTPγ (P23470 20-1445): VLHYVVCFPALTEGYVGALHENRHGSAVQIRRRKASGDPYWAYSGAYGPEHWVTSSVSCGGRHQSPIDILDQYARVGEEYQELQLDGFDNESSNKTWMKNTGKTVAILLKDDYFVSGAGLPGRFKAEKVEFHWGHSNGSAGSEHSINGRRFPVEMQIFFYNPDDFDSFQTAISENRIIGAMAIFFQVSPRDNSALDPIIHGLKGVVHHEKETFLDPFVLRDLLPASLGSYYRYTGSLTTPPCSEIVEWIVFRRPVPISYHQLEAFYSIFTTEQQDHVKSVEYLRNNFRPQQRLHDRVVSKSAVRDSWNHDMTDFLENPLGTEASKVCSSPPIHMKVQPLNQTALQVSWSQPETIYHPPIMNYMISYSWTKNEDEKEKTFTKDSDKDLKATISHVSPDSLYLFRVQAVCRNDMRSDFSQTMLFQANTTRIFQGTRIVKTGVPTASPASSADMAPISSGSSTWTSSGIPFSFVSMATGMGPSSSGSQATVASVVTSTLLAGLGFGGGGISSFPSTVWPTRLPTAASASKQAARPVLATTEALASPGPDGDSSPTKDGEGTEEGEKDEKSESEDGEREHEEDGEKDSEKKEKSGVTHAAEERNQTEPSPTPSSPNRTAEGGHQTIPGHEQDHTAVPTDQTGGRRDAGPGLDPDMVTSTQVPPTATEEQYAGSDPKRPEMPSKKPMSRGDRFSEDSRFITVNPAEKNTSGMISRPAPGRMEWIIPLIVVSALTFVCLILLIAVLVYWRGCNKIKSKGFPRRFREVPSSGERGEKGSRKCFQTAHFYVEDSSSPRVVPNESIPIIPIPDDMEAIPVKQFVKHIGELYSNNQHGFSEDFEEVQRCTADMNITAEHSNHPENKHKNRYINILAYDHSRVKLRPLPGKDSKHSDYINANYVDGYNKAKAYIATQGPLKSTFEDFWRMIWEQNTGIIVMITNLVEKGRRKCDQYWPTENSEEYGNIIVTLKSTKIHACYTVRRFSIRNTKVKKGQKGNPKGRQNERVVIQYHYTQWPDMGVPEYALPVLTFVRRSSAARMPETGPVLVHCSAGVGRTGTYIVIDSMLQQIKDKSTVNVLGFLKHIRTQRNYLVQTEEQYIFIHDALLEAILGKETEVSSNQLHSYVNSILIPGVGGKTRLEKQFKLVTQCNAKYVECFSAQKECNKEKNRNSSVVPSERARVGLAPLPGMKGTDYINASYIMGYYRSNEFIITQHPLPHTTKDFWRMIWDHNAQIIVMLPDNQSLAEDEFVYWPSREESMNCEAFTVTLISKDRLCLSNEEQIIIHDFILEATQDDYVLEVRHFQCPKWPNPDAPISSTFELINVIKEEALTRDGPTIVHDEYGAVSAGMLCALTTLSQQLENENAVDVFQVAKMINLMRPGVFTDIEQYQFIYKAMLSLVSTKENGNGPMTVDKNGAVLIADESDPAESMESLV

On to `Cn1c(-c2cccc(NC(=O)C(=O)Nc3ccc(-c4ccsc4)cc3)c2)c(I)c2cc(C(=O)O)c(O)cc21` [11a-1, 6-hydroxy-3-iodo-1-methyl-2-(3-(2-oxo-2-((4-(thiophen-3-yl)phenyl)amino)acetamido)phenyl)-1H-indole-5-carboxylic acid], for which the IC50 in test [1] came to 1090 ± 40 nM; in test [2], 12200 ± 2000 nM; in test [3] it was 2400 ± 400 nM; in test [4] (pNPP at Km), 1440 ± 40 nM; in test [6] it was 2900 ± 100 nM; in test [7], 2300 ± 200 nM. The half-maximal inhibitory concentration (IC50) in test [8] was 170 ± 20 nM; in test [10], 9700 ± 500 nM; in [11] it was 3190 ± 90 nM; in [12] it was 8600 ± 400 nM; in test [13], above 20000 nM; in test [14] it was 1070 ± 70 nM. The same molecule yielded an IC50 in test [15] (pNPP substrate, pH 7.0, 25° C.) of 200 ± 20 nM. In addition, the “preference for SHP2 over SHP1” value in test [4] was determined as 7 fold. Moreover, the “growth of WT KIT bearing 32D cells” value in test [5] is “no significant suppression”. Moreover, the “effect on PMA-induced Erk1/2 phosphorylation” value in [9] is recorded as “no effect”. Also, in test [15], the “selectivity for SHP2 over a panel of 20 mammalian PTPs” value was “over 5 fold”. In addition, the “ligand independent growth of KITD814V bearing 32D cells” value in [16] (1 μM) and in test [16] (5 μM) was “significant inhibition” throughout. Further, in test [17], the “preference for SHP2 over PTP1B” value came out at 11 fold.
